From ChEMBL document CHEMBL1201862, “PubChem BioAssay data set” (2004)
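96-well plates; 48 h exposure; 5 concentrations. Endpoints by linear interpolation between flanking doses. Not reached: highest tested concentration assigned. Abbreviation: GI50, concentration required for 50% inhibition of growth.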 Calls of active or inactive are those of the source. Cut-off read from the data, not from the text of the source: active = GI50 up to about 1.1 µM and inactive = higher.

Tests used:
Assay in all cases: NCI-60 cell line screen, 48 h
HOP-62 = test system: HOP-62
HOP-92 = test system: HOP-92
KM12 = test system: KM12
Malme-3M = test system: Malme-3M
OVCAR-3 = test system: OVCAR-3
OVCAR-5 = test system: OVCAR-5
RPMI-8226 = test system: RPMI-8226
SF-295 = test system: SF-295
SK-MEL-28 = test system: SK-MEL-28
SK-MEL-5 = test system: SK-MEL-5
SN12C = test system: SN12C
SW-620 = test system: SW-620
UACC-257 = test system: UACC-257
UO-31 = test system: UO-31
K562 = test system: K562
NCI-H522 = test system: NCI-H522
SK-OV-3 = test system: SK-OV-3

Measured: GI50

Cc1cccc(NC2=NC(=O)C(CC(=O)Nc3cccc(C)c3C)S2)c1 (stereo not given)
inactive: HOP-62 > 100 µM | HOP-92 21.2 µM | KM12 > 100 µM | Malme-3M > 100 µM | OVCAR-3 > 100 µM | OVCAR-5 > 100 µM | RPMI-8226 85.9 µM | SF-295 > 100 µM | SK-MEL-28 > 100 µM | SK-MEL-5 > 100 µM | SN12C > 100 µM | SW-620 > 100 µM | UACC-257 > 100 µM | UO-31 > 100 µM

CCC(=O)CCC1=Nc2nnc(CCCCc3nnc4n3C(=O)C(CCC(=O)CC)=N4)n2C1=O
inactive: HOP-62 > 100 µM | HOP-92 > 100 µM | K562 > 100 µM | KM12 > 100 µM | Malme-3M > 100 µM | NCI-H522 > 100 µM | OVCAR-3 > 100 µM | OVCAR-5 > 100 µM | RPMI-8226 > 100 µM | SF-295 > 100 µM | SK-MEL-28 > 100 µM | SK-OV-3 > 100 µM | SN12C > 100 µM | SW-620 > 100 µM | UACC-257 > 100 µM | UO-31 > 100 µM

COc1cc2ccc(/C(C)=N/OC(C)=O)cc2cc1OC
inactive: HOP-92 51.3 µM | K562 94 µM | KM12 > 100 µM | Malme-3M > 100 µM | NCI-H522 22.4 µM | OVCAR-3 34.1 µM | OVCAR-5 63.4 µM | RPMI-8226 84.7 µM | SF-295 49.9 µM | SK-MEL-28 > 100 µM | SK-OV-3 > 100 µM | SN12C 49.5 µM | SW-620 > 100 µM | UACC-257 > 100 µM | UO-31 34.7 µM

CC(C)(C)OC(=O)NC1CCC(C(C)(C)C)CC1 (stereo not given)
inactive: HOP-62 > 91 µM | K562 51.1 µM | KM12 > 81.7 µM | Malme-3M 33.2 µM | NCI-H522 85.1 µM | OVCAR-3 58.6 µM | OVCAR-5 > 100 µM | RPMI-8226 27.3 µM | SF-295 26.5 µM | SK-MEL-28 > 100 µM | SK-MEL-5 27.7 µM | SK-OV-3 > 100 µM | SN12C > 77.8 µM | SW-620 > 64.3 µM | UACC-257 19.5 µM | UO-31 59.2 µM

CC(=O)OCC1OC(n2c(=S)n(-c3ccccc3)c(=O)c3cc(Br)ccc32)C(OC(C)=O)C1OC(C)=O (stereo not given)
inactive: HOP-62 > 100 µM | HOP-92 > 100 µM | KM12 > 100 µM | Malme-3M > 100 µM | NCI-H522 > 100 µM | OVCAR-3 > 100 µM | OVCAR-5 > 100 µM | RPMI-8226 51.3 µM | SF-295 > 100 µM | SK-MEL-28 > 100 µM | SK-MEL-5 > 100 µM | SK-OV-3 > 100 µM | SN12C > 100 µM | SW-620 > 100 µM | UACC-257 > 100 µM | UO-31 > 100 µM

NC(=O)C12CC3CC(CC(F)(C3)C1)C2
inactive: HOP-62 > 100 µM | HOP-92 > 100 µM | K562 > 100 µM | KM12 > 100 µM | Malme-3M > 100 µM | NCI-H522 > 100 µM | OVCAR-3 > 100 µM | OVCAR-5 > 100 µM | RPMI-8226 > 100 µM | SK-MEL-28 > 100 µM | SK-OV-3 > 100 µM | SW-620 > 100 µM | UACC-257 > 100 µM | UO-31 > 100 µM

Cc1nc2c(sc(=S)n2-c2ccccc2)c2nc3ccccc3n12
inactive: HOP-62 > 100 µM | K562 > 100 µM | KM12 > 100 µM | Malme-3M > 100 µM | NCI-H522 > 100 µM | OVCAR-3 > 100 µM | OVCAR-5 > 100 µM | RPMI-8226 > 100 µM | SF-295 > 100 µM | SK-MEL-28 > 100 µM | SK-OV-3 > 100 µM | SN12C > 100 µM | UACC-257 > 100 µM | UO-31 > 100 µM
